Assays:
[1] = Blood brain barrier PK: plasma and brain levels after iv dosing; format: in vivo, male SD rats; conditions: male rats, 5 mg/kg iv; for BBB penetration: brain level: BQL = below the quantification limit
Description: The biodistribution study in plasma and brain tissue was performed using eight-week-old male SD rats (Orient Bio Inc., Seongnam, Korea). Dosing vehicles were composed of DMSO, PEG400, and deionized water (5:40:55, v/v/v). 18i compound was administrated at a dose of 5 mg/kg via intravenous (I.V.). […] Brain tissues were rinsed with saline and four volumes of acetronitrile containing disopyramide were added as an internal standard for LC-MS/MS analysis. The brain samples were homogenized using a sonicator (IKA Labortechnik T10 basic ULTRA-TURRAX, Staufen, Germany) for 10 s on the ice. The plasma samples were added to nine volumes of acetonitrile and vortexed for 5 min. The samples were centrifuged (15,000 RPM, 4 °C, 10 min). The supernatant was collected and analyzed by an LC-MS/MS system.
The LC-MS/MS analysis was performed on an Agilent 1200 series (Agilent Technologies, Santa Clara, CA, USA) with an API 4000 linear ion trap triple quadruple mass spectrometer (AB Sciex, CA, USA). The chromatographic separation of the drug was carried out using a kinetex column (100 × 2.1 mm, 3 μm, Phenomenex, CA USA) with a SecurityGuard C18 guard column (4 mm × 2.0 mm i.d., Phenomenex). The flow rate was 300 µL/min with a mobile phase consisting of 0.1% formic acid in water (eluent A) and 0.1% formic acid in acetonitrile (eluent B) by linear gradient condition as follows: starting with 0 to 0.3 min, B: 5%; 0.3 to 2.5 min, B: 5 → 95%; 2.5 to 2.9 min, B: 95%; 2.9 to 3.0 min, B: 95 → 5%, and then re-equilibrated to initial conditions until 3 min. The total run time was 6 min and the injection volume of 5 μL.

hERG channel protein = molecular target: T1, hERG channel protein (Homo sapiens, UniProt Q12809); experiment: hERG inhibition (Predictor hERG FP binding kit); conditions: at 10 uM
T1 construct: purchased Thermo Fisher Scientific, Inc
T1 sequence (Q12809 whole entry): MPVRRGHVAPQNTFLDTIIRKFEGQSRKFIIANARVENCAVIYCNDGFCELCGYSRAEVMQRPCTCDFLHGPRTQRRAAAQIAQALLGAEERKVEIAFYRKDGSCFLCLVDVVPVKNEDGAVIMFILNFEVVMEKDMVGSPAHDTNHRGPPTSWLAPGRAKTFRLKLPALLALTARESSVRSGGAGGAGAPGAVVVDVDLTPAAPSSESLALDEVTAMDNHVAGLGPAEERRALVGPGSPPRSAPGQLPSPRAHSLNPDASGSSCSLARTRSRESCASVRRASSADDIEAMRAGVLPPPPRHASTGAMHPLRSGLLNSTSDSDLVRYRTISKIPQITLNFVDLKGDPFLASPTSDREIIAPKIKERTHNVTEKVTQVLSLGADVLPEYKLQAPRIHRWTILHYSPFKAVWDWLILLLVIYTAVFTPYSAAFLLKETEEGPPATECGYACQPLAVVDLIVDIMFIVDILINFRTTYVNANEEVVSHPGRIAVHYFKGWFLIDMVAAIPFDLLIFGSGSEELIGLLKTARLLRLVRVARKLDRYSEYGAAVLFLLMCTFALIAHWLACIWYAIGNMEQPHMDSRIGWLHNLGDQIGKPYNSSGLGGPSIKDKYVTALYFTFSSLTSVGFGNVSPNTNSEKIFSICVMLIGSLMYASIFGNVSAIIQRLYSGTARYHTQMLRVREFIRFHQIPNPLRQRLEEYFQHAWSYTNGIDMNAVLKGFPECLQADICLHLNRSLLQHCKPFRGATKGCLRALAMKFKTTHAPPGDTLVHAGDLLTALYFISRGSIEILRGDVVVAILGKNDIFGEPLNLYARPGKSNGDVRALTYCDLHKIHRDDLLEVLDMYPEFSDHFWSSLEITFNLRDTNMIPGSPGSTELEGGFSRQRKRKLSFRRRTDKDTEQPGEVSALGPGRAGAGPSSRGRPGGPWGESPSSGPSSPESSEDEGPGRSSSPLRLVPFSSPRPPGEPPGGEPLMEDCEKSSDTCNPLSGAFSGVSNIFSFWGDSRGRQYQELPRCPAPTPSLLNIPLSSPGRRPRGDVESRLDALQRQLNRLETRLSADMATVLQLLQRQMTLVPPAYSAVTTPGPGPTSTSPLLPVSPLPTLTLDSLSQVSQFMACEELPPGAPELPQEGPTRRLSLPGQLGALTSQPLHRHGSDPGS
Description: The inhibition of binding affinity by small molecules was measured using the PredictorTM hERG FP kit (Thermo Fisher Scientific, Inc., Rockford, IL, USA). The procedure was carried out in accordance with the manufacturer's instructions. Briefly, tracer (PredictorTM hERG tracer red) was prepared with dilution in the binding buffer. The binding assay was conducted in 384 well black flat-bottom microplates (Corning Life Sciences, Lowell, MA, USA) after the serial addition of 5 μL of a 4 nM tracer, 5 μL of test compounds, and a 10 μL membrane fraction containing hERG channel protein. The mixtures were incubated at room temperature for 2 h. The fluorescence polarization (FP) was measured with an excitation filter of 530 nm and an emission filter of 585 nm using a microplate reader (Infinite […]; Tecan, Mannedorf, Switzerland).

CYP2D6 = molecular target: T2, CYP2D6 (Homo sapiens, UniProt P10635); experiment: CYP inhibition assay (P450-Glo) CYP2D6; format: in vitro ADME; conditions: P450-Glo CYP2D6 Screening System (CYP enzyme), read-out: CYP inhibition 2D6
T2 construct: purchased Promega Corp. V9890
T2 sequence (P10635 whole entry): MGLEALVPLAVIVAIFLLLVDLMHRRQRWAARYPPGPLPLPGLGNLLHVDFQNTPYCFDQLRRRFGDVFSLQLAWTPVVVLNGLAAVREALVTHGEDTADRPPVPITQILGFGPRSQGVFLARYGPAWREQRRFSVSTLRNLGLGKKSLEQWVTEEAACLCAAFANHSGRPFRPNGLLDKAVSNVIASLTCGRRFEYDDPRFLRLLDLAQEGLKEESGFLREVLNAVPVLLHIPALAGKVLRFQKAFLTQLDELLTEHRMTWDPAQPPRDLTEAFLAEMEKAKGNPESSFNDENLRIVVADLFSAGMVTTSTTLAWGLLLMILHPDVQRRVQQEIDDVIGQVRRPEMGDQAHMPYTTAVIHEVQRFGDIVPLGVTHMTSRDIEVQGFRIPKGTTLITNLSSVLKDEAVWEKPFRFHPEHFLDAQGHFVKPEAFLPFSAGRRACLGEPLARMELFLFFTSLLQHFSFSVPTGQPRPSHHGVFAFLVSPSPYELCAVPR
Description: Five major screening systems: P450-Glo CYP1A2 Screening System (Catalog# V9770), P450-Glo CYP2C9 Screening System (Catalog# V9790), P450-Glo CYP2C19 (Catalog# V9880), P450-Glo CYP 2D6 (Catalog# V9890), and P450-Glo CYP3A4 (Catalog# V9920) were attained from Promega Corp. (Madison, WI). α-naphthoflavone, sulfaphenazole, amitriptyline, quinidine, and ketoconazole were identified as positive control inhibitors for CYP1A2, CYP2C9, CYP2C19, CYP2D6, and CYP3A4, respectively. The CYP enzyme and substrate were combined in a potassium phosphate (KPO4) buffer and the reaction is initiated by adding an NADPH regenerating system. The volume of the mixture (12.5 μL in a 96-well plate) was combined with an equal volume of test compound solution and positive control inhibitor (12.5 μL added to make the volume 25 μL). The reaction of the NADPH regeneration system was initiated by adding a 2× concentration of NADPH solution. Then an equal volume of luciferin detection reagent was added. The plates were incubated at room temperature for 20 min and the luminescence signal was measured by a microplate reader device.

3T3-L1 cells = experiment: In vitro efficacy test: lipogenic/adipogenic gene expression during 3T3-L1 adipocyte differentiation; format: cell-based, mouse; conditions: 10 μM or 50 μM, vs vehicle
Description: 3T3-L1 cells (American Type Culture Collection, Manassas, VA, USA) were cultured in DMEM supplemented with 10% FCS and […] P/S in a humidified chamber under 5% atmospheric CO2 at 37 °C. Two days after reaching confluence, cells were further cultured in adipocyte differentiation medium (DMEM/10% FBS, P/S, 0.5 mM IBMX, 1 μg mL^−1 insulin, and 1 μM dexamethasone) (day 0). After 2 days, the medium was changed to adipocyte maintenance medium (DMEM/10% FBS, 1 μg mL^−1 insulin, P/S) (day 2), and the media was changed every 2 days from day 4 to 8. Cells were treated with compound 6 at 10 or 50 μM concentrations throughout adipocyte differentiation (day 0 thru day 8). On day 8, differentiated 3T3-L1 […] were harvested for analysis of gene expression.
Total RNA was extracted from 3T3-L1 cells using Trizol reagent (Invitrogen, Carlsbad, CA, USA), purified using a RNeasy Lipid Tissue Mini kit (Qiagen, Hilden, Germany), and an aliquot (2 µg) of total RNA was reversed transcribed using the RevertAidTM First Strand cDNA Synthesis Kit (Thermo Fisher Scientific, Waltham, MA, USA) according to the manufacturer’s instructions. Real-time PCR was carried out using SYBR Green (Power SYBR Green PCR Master Mix, Thermo Fisher Scientific) with a ViiA™ 7 Real-Time PCR system (Applied Biosystems, Waltham, MA, USA). […]

concentration at 0.5 h ([1]; SD, rat, plasma, 0.5 h, read-out: BBB penetration: plasma level): 2270 ng/mL
concentration at 3 h ([1]; SD, rat, plasma, 3 h, read-out: BBB penetration: plasma level): 1440 ng/mL
BBB penetration: plasma level ([1]; 0.5 h): Plasma: 0.5 h: 2266 ng/mL
BBB penetration: brain level ([1]; 0.5 h): Brain: 0.5 h: BQL ^a
BBB penetration: plasma level ([1]; 3 h): 3 h: 1439 ng/mL
BBB penetration: brain level ([1]; 3 h): 3 h: BQL
level below the quantification limit (text says plasma) ([1]; time not stated): < 7 ng/mL
inhibition at 10 µM (CYP2D6): 24.6%
Compound: Cc1ccn(-c2cc(Cl)ccc2[C@@H](Oc2ncnc3c(-c4ccc(C[C@H](N)C(=O)O)cc4)csc23)C(F)(F)F)n1.Cl [Compound 18i, (S)-2-amino-3-(4-(4-((R)-1-(4-chloro-2-(3-methyl-1H-pyrazol-1-yl)phenyl)-2,2,2-trifluoroethoxy)thieno[3,2-d]pyrimidin-7-yl)phenyl)propanoic acid hydrochloride]
Herg inhibition (hERG channel protein): <1% inhibition at 10 uM
Expression of lipogenic genes Fasn, Srebp1c and adipogenic transcription factors Pparg, Cebpa (3T3-L1 cells): decreased expression of key lipogenic genes

Source: paper PMC9182086, “Identification of New Non-BBB Permeable Tryptophan Hydroxylase Inhibitors for Treating Obesity and Fatty Liver Disease” (Molecules, 2022)
